Measurements taken from patent US9095613B2, “Photosensitizer-metal nanoparticle charge complex and composition containing the complex for photodynamic therapy or diagnosis” (NATIONAL CANCER CENTER, priority 2009, dated 2015).
Like-named read-outs stand apart in the source and are kept apart here.

What was measured:
skin photosensitivity = settings: patient after administration; cited from earlier work
[1] = tested on: SCC7 (Squamous cell Carcinoma) cell line; assay: Quantitative analysis of uptake into cells (fluorescence of cell lysis solution); type: cell-based; settings: 5 μM AlPcS4 equivalent, 4 hours
Protocol: 90000 cells of a SCC7 (Squamous cell Carcinoma) cell line per well were seeded in a 96 well plate and cultured for 24 hours. Afterwards, the AlPcS4 and the GNR/AlPcS4 complex prepared in Preparation Example 2-4 were diluted with a cell culture medium containing serum to have an equivalent concentration of 5 μM AlPcS4. […] of the diluted solution per well was added, and maintained at 37° C. for 4 hours. Subsequently, after the cell culture medium containing the photosensitizer was removed, the cells were washed three times, and then treated with 200 μl of 0.1% SDS/0.1M NaOH solution for 2 hours for cell lysis. Then, a fluorescence signal of the AlPcS4 generated from this solution was measured (Ex. 660 nm, Em. 690 nm).

SCC7 xenograft tumor [2] = assay: Inhibition of tumor growth by photodynamic therapy in xenograft model; type: in vivo, Balb/c-nu mice; settings: 1 mg AlPcS4 equivalent/kg i.v., 670 nm 60 J/cm^2
Protocol: (§1) 2×10^6 cells per 100 μl of the SCC7 cell line were injected subcutaneously to hind legs of Balb/c-nu mice of 19 to 22 g to create xenograft tumor models. When a tumor was grown to a size of about […], 29 experimental animals were divided into three groups (Day 0) based on the tumor size. Among them, 6 mice were used for near-infrared fluorescence imaging using the photosensitizer, and the other 23 mice were used to observe an inhibitory effect on tumor growth through the photodynamic therapy. A volume of the tumor was calculated with an equation of height×length×width×0.5.
For each of the AlPcS4-treated group and the GNR/AlPcS4 complex-treated group, the drug (each of AlPcS4 and GNR/AlPcS4 complex prepared in Preparation Example 2-4) dissolved in PBS (6.7 mM, pH 7.4, NaCl 154 mM) was injected into a tail vein of a mouse at the dose of 1 mg AlPcS4 equivalent/kilogram body weight. […] To compare the near-infrared fluorescence image and the accumulated amount in the tumor of the injected photosensitizer, two mice were taken from each group after 24 hours from the treatment of the drug (Day 2), and therefrom fluorescence images of AlPcS4 were obtained using a near-infrared fluorescence image device (IVIS Lumina) (Cy5.5 channel; Ex. filter 615-665 nm, Em. Filter 695-770 nm). […]

SCC7 xenograft tumor [3] = assay: Near-infrared fluorescence imaging of tumor in xenograft model; type: in vivo, Balb/c-nu mice; settings: 1 mg AlPcS4 equivalent/kg, tail vein, 24 hours after injection
Protocol: as §1
For each of the AlPcS4-treated group and the GNR/AlPcS4 complex-treated group, the drug (each of AlPcS4 and GNR/AlPcS4 complex prepared in Preparation Example 2-4) dissolved in PBS (6.7 mM, pH 7.4, NaCl 154 mM) was injected into a tail vein of a mouse at the dose of 1 mg AlPcS4 equivalent/kilogram body weight. […] To compare the near-infrared fluorescence image and the accumulated amount in the tumor of the injected photosensitizer, two mice were taken from each group after 24 hours from the treatment of the drug (Day 2), and therefrom fluorescence images of AlPcS4 were obtained using a near-infrared fluorescence image device (IVIS Lumina) (Cy5.5 channel; Ex. filter 615-665 nm, Em. Filter 695-770 nm).

SCC7 cell line = assay: Cell viability test after photodynamic therapy (CCK-8); type: cell-based; settings: 5 μM AlPcS4 equivalent, 670 nm, 10 J/cm^2, after 24 hours
Protocol: 9000 cells of a SCC7 cell line per well were seeded in a 96 well plate, and cultured for 24 hours. After the AlPcS4 and the GNR/AlPcS4 complex prepared in Preparation Example 2-4 were diluted with a cell culture medium to have an equivalent concentration of 5 μM AlPcS4, 200 μl of the diluted solution per well was added and then maintained at 37° C. for 4 hours. For a control group, the same volume of cell culture medium was added to the plate. Afterwards, to remove the photosensitizer which was not taken up into the cell, the cells were washed with a cell culture medium twice, and then a fresh cell culture medium was added. The PDT-treated groups were irradiated with light at 670 nm using laser under conditions of a light dose density of 50 mW/cm^2 and light doses of 5 J/cm^2 and 10 J/cm^2. After 24 hours, cell viability was measured using a cell counting kit-8 (CCK-8, Dojindo Laboratories).

[4] = at 675 nm, known value; cited from earlier work
[5] = at 630 nm; cited from earlier work

Compound	duration of side effect of skin photosensitivity (skin photosensitivity)	effect of increasing amount of serum (FBS) on uptake into cells [1]	course of tumor size after photodynamic therapy (SCC7 xenograft tumor [2])	size of the tumor relative to control group (SCC7 xenograft tumor [2]; fifth day) [%]	average fluorescence signal in tumor (SCC7 xenograft tumor [3]) [counts]	tumor-to-background ratio of the AlPcS4 fluorescence (SCC7 xenograft tumor [3])	phototoxicity (SCC7 cell line) [%]	molar absorption coefficient [4] [M⁻¹ cm⁻¹]	molar absorption coefficient [5] [M⁻¹ cm⁻¹]
C=Cc1c(C)c2cc3nc(c(CC(=O)N[C@@H](CC(=O)[O-])C(=O)[O-])c4nc(cc5[nH]c(cc1[nH]2)c(C)c5CC)C(C)=C4C(=O)[O-])[C@@H](CCC(=O)[O-])[C@@H]3C.[Na+].[Na+].[Na+].[Na+] [Mono-L-aspartyl chlorine e6, mono-L-aspartyl chlorine e6]	1 week								
Al(III) phthalocyanine chloride tetrasulfonic acid [AlPcS4]		greatly decreased	temporarily decreased	67	7224	2.5	64	170000	
Photofrin	more than 6 week								1170
